Columns and labels:
[1] = tested on: 2B4/MCL-1; assay: caspase activation in 2B4/MCL-1 versus 2B4/BCL-2 cells, late-stage follow-up, selectivity assay for MCL1-BIM inhibitor project, cell-based, fluorescence, assay provider data (AID 493062); details: 2B4/MCL-1 caspase activation fluorescence
[2] = tested on: 2B4/BCL-2; assay: as above; details: 2B4/MCL-1 caspase activation fluorescence

| SMILES | EC50 [1] [µM] | EC50 [2] [µM] |
| --- | --- | --- |
| O=C(Nc1ccccc1N1CCOCC1)c1cc(-c2ccco2)nc2ccccc12 | > 25 | > 25 |
| CC(C)CCNC(=O)c1cc(-c2ccco2)nc2ccccc12 | > 25 | > 25 |
| COc1ccc(Cc2nnc(NC(=O)c3cc(-c4ccc(C)o4)nc4ccccc34)s2)cc1OC | 12 | 30 |
| Cc1cccc(NC(=O)c2cc(-c3ccco3)nc3ccc(Br)cc23)n1 | 25 | 0.6 |
| COc1ccc(NC(=O)c2cc(-c3ccco3)nc3ccccc23)cc1 | > 25 | > 25 |
| O=C(NC1CC1)c1cc(-c2ccco2)nc2ccccc12 | > 25 | > 25 |
| CCC(=O)Nc1nnc(Cc2ccccc2)s1 | > 25 | > 25 |
| Cc1ccc(-c2cc(C(=O)N(C)CC(=O)Nc3ccccc3Br)c3ccccc3n2)o1 | > 25 | > 25 |

Source: PubChem BioAssay AID493062 (The Scripps Research Institute Molecular Screening Center, 2011)
